Key:
[1] = molecular target: T1, Syk (Homo sapiens, UniProt P43405); assay: Syk enzyme inhibition (Z-LYTE FRET); format: biochemical
T1 construct: purchased Life Technologies
Method: (§1) The enzyme inhibitory activities of compounds disclosed herein were determined by FRET using synthetic peptides labelled with both donor and acceptor fluorophores (Z-LYTE, Life Technologies, Paisley, UK).
The relevant enzyme (1000 ng/mL, 1400 ng/mL or 2000 ng/mL respectively, 2.5 μL) was incubated with the test compound (either 40 μg/mL, 12 μg/mL, 4 μg/mL, 1.2 μg/mL, 0.4 μg/mL, 0.12 μg/mL, 0.04 μg/mL, 0.012 μg/mL, 0.004 μg/mL or 0.0012 μg/mL, 2.5 μL each) for 2 h at RT. The FRET peptides (8 μM, 2.5 μL), and appropriate ATP solutions (2.5 μL, 800 μM for c-Src, and 60 μM ATP for HCK and Syk) were then added to the enzyme/compound mixtures and incubated for 1 h at RT. Development reagent (protease, 5 μL) was added for 1 h prior to detection in a fluorescence microplate reader (EnVision, Perkin Elmer).
(§2) In all cases, the site-specific protease cleaves non-phosphorylated peptide only and eliminates the FRET signal. Phosphorylation levels of each reaction were calculated using the ratio of coumarin emission (donor) over fluorescein emission (acceptor), for which low ratios indicate high phosphorylation and high ratios indicate low phosphorylation levels.

[2] = molecular target: T2, GSK 3α enzyme isoform (Homo sapiens, UniProt P49840); assay: GSK 3α enzyme inhibition (Z-LYTE FRET); format: biochemical
T2 construct: purchased Life Technologies
Method: as §1
The GSK3a protein (500 ng/mL, 2.5 μL) was incubated with the test compound (2.5 μL at either 40 μg/mL, 12 μg/mL, 4 μg/mL, 1.2 μg/mL, 0.4 μg/mL, 0.12 μg/mL, 0.04 μg/mL, 0.012 μg/mL, 0.004 μg/mL or 0.0012 μg/mL) for 2 h at RT. The FRET peptide (8 μM, 2.5 μL), which is a phosphorylation target for GSK3α, and ATP (40 μM, 2.5 μL) was then added to the enzyme/compound mixture and the resulting mixture incubated for 1 h at RT. Development reagent (protease, 5 μL) was added for 1 h prior to detection in a fluorescence microplate reader (EnVision, Perkin Elmer).
as §2

[3] = system: PBMCs (mitosis); assay: Cell mitosis assay in PHA-treated PBMCs; format: cell-based, human
Method: Peripheral blood mononucleocytes (PBMCs) from healthy subjects were separated from whole blood (Quintiles, London, UK) using a density gradient (Histopaquee-1077, Sigma-Aldrich, Poole, UK). The PBMCs (3 million cells per sample) were subsequently treated with 2% PHA (Sigma-Aldrich, Poole, UK) for 48 h, followed by a 20 h exposure to varying concentrations of test compounds. At 2 h before collection, PBMCs were treated with demecolcine (0.1 μg/mL; Life Technologies, Paisley, UK,) to arrest cells in metaphase.

[4] = system: d-U937 cells; assay: Cell viability: MTT assay in differentiated U937 cells; format: cell-based, human; conditions: 10 μg/mL
Method: Differentiated U937 cells were pre-incubated with each test compound (final concentration 10 μg/mL in 200 μL media indicated below) under two protocols: the first for 4 h in 5% FCS RPMI1640 media and the second in 10% FCS RPMI1640 media for 24 h. The supernatant was replaced with new media (200 μL) and MTT stock solution (10 μL, 5 mg/mL) was added to each well. After incubation for 1 h the media were removed, DMSO (200 μL) was added to each well and the plates were shaken lightly for 1 h prior to reading the absorbance at 550 nm. The percentage loss of cell viability was calculated for each well relative to vehicle (0.5% DMSO) treatment. Consequently an apparent increase in cell viability for drug treatment relative to vehicle is tabulated as a negative percentage.

[5] = system: sputum macrophages from COPD patients; assay: Cytokine production in LPS-treated sputum macrophages from COPD patients; format: cell-based, human
Method: Patients with COPD inhaled a nebulised solution of 3% (w/v) hypertonic saline using an ultrasonic nebuliser (Devilbiss, Carthage, Mo.) with tidal breathing for 5 min. This procedure was repeated a maximum of three times until enough sputum was obtained. The sputum samples were homogenized and mixed vigorously using a vortex mixer in 0.02% v/v dithiothreitol (DTT) solution. The samples were re-suspended in PBS (40 mL) followed by centrifugation at 1500 rpm at 4° C. for 10 min to obtain sputum cell pellets. The pellets were washed with PBS (40 mL). The sputum cells were then re-suspended in 4 mL macrophage serum-free medium (macrophage-SFM, Life technologies, containing 20 U/mL penicillin, 0.02 mg/mL streptomycin and 5 μg/mL amphotericin B) and seeded on high bound 96-well plate, followed by incubation for 1 h at 37° C. and at 5% CO2 to allow the macrophages to attach to the bottom of the plate. The cells on the plate were washed with fresh macrophage-SFM (200 μL/well) to remove neutrophils and other contaminated cells. The adherent cells (mainly sputum macrophages) on the plate were used for further analysis. Sputum inductions were conducted in Quintiles Drug Research Unit at Guys Hospital and ethics approval and written informed consent was obtained by Quintiles.
Where appropriate, 1 μL of a solution containing either the test compound or reference article at the stated concentrations (either 0.1 μg/mL, 0.01 μg/mL, or 0.001 μg/mL) or alternatively 1 μL of DMSO as the vehicle control was added to each well (200 μL in media) and the cells were incubated for 2 h. The cells were stimulated with LPS solution (50 μL, final concentration: 1 μg/mL) and incubated for 18 h at 37° C. and 5% CO2. The supernatant was then collected and kept at −80° C. Suitable luminex kits were used to measure the selected analytes. After thawing the supernatant, the magnetic antibody beads were multiplexed and incubated in a 96-well plate with standard, background solution or the appropriate volume of sample overnight with shaking at 4° C. After washing twice with 200 μL of wash buffer provided by the kit per well using a magnetic plate washer, the beads were incubated for 1 h at RT with the biotin conjugated antibody solution provided by the kit with shaking. Streptavidin solution was added for 30 min with shaking at RT. After washing with 200 μL wash buffer per well, the beads were resuspended in sheath fluid (150 μL) and analyzed immediately. The level of each analyte in the supernatant was calculated using Xcel Fit software with a 4 or 5-parameter equation using each standard curve. The inhibitions of each cytokine production were calculated at each concentration by comparison with vehicle control.

[6] = system: HRV (RV16)-induced IL-8 release in BEAS2B cells; assay: Rhinovirus-induced IL-8 release in BEAS2B cells; format: cell-based, human
Method: Human rhinovirus RV16 is obtained from the American Type Culture Collection (Manassas, Va.). Viral stocks are generated by infecting MRC5 cells with HRV until 80% of the cells were cytopathic.
BEAS2B cells are infected with HRV at an MOI of 1.2 and incubated for 1 h at 33° C. with gentle shaking to promote absorption. The cells are then washed with PBS, fresh media added and the cells are incubated for a further 72 h. The supernatant is collected for assay of IL-8 concentrations using a Duoset ELISA development kit (R&D systems, Minneapolis, Minn.). Compounds are added 2 h before HRV infection and 1 h after infection when non-infected HRV is washed out.

T2 sequence (P49840 whole entry, canonical isoform): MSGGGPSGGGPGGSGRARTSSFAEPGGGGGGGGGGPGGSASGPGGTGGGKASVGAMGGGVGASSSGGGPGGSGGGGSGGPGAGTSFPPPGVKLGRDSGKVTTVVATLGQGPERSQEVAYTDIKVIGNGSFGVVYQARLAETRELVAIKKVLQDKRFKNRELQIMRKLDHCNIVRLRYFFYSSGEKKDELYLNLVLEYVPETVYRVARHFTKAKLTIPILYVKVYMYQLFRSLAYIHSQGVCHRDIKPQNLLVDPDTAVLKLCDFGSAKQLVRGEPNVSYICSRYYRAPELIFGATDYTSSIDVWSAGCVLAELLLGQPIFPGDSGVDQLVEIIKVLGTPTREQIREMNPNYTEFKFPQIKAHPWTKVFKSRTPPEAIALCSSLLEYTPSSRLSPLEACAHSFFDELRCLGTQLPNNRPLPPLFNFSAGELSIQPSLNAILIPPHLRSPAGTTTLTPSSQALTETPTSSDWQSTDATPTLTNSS

CCc1cncc(Nc2cc(COc3ccc(NC(=O)Nc4cc(C(C)(C)C)nn4-c4ccc(C)cc4)c4ccccc34)ccn2)n1 [Example 2, 1-(3-(tert-Butyl)-1-(p-tolyl)-1H-pyrazol-5-yl)-3-(4-((2-((6-ethylpyrazin-2-yl)amino)pyridin-4-yl)methoxy)naphthalen-1-yl)urea]
inhibitory activity against Syk (in words) [1]: very much weaker than the Reference Compound | inhibitory activity against GSK3a (in words) [2]: very much weaker than the Reference Compound | impact on cell division (mitosis) compared with Reference Compound [3]: markedly less activity | MTT Assay Cell viability at time point indicated in d-U937 Cells, 4 h ([4]; 4 h): − (−ve and +ve indicate the value is below and above, respectively, the no significant effect threshold defined as 30% inhibition at 10 μg/mL at the time point indicated) | MTT Assay Cell viability at time point indicated in d-U937 Cells, 24 h ([4]; 24 h): − (−ve and +ve indicate the value is below and above, respectively, the no significant effect threshold defined as 30% inhibition at 10 μg/mL at the time point indicated) | inhibition of pro-inflammatory cytokine production in sputum macrophage compared with fluticasone propionate [5]: higher efficacy | inhibition of HRV-induced IL-8 (FIG. 1) [6]: dose-dependent inhibition
